Experimental data as given in patent publication US12582672B2, “Vanadium compositions and methods for treatment of cancer” (THE BROAD INSTITUTE, INC., priority 2018, dated 2026).
“Also recorded” adds a separate entry of the source.

Key:
578 cancer cell lines = test: PRISM multiplexed cellular viability assay; type: cell-based; details: for prediction of cell line sensitivity by SLC26A2 expression: more than 4,000 compounds profiled against 578 cancer cell lines
Procedure: Parental cell lines were obtained from the Cancer Cell Line Encyclopedia (CCLE) project (1). PRISM cell line barcoding, pooling, and screening was performed as previously described with several improvements to the original method (2). First, the lentiviral vector was modified to encode the unique barcode identifier at the end of the puromycin resistance gene. This enables barcodes to be detected using a variant of the mRNA capture and Luminex detection method developed for the L1000 gene expression assay (3). Second, a set of ten inert barcodes were spiked-in to each well of each plate after cell lysis to control for variation in PCR amplification as detailed below.
Luminex technology produced .Ixb files containing data for each Luminex bead observed during detection. These .Ixb files were processed to compute Median Fluorescence Intensity (MFI) values, calculated as the median of the values obtained for all beads corresponding to a single PRISM barcode.
MFI values were log-transformed (logMFI) and used to perform basic quality control. To detect probable screening artifacts, logMFI values were centered to the median logMFI for each cell line on each plate in order to put the measurements from each cell line on the same scale. For each well on each plate, the median of these centered values was then standardized according to the global median and global MAD across all plate wells in the same position. Data from wells with a standardized score of greater than 5 or less than −5 were excluded from all further processing steps.
For each cell line on each plate, the distribution of MFI values observed for the DMSO-treated negative controls was compared to that of the positive controls using a robust form of the Strictly Standardized Mean Difference (SSMD*)′. Specifically, SSMD* was calculated as: […]
Data corresponding to SSMD values less than 2 were removed before calculating cell viability.
The data in the instant disclosure were produced according to two different screening protocols. In the PR500 protocol, ten inert barcodes were spiked-in to each well of each plate after cell lysis. For data produced using the PR500 protocol, normalized MFI (nMFI) values were computed by taking the ratio of each MFI value against the median of the inert barcodes within each well. For data produced before the PR500 protocol was introduced, nMFI values were set equal to MFI values.
Cell viability was calculated as the ratio of nMFI to the median of the nMFI from the DMSO-treated negative controls for each cell line on each plate. Batch effects produced from variable detection and assay conditions were then removed using ComBat (4). The final viability values were calculated as the median of the batch-corrected cell viabilities from biological replicates for each cell line, compound and dose.
Measures of dose response were obtained by fitting 3-parameter logistic curves to viability values for each compound and cell line using the R package ‘drc’. Following the practice of Smirnov and Safikhani (5), viability was truncated at 1.0 and fit as a function of drug concentration according to:
[formula] where all concentrations are in the natural logarithm scale. IC50 values were defined as the concentration c at which V(c)=0.5, given by the formula:
[formula] The Area Under the dose response Curve (AUC) was calculated using the normalized integral: […]
The formulation above puts AUC values on a scale between 0 and 1, where lower AUC values indicate increased sensitivity to the treatment.

[1] = system: SLC26A2 knockouts in A375, OVISE, and A2058 cell lines; test: CellTiter-Glo cellular viability assay in CRISPR-Cas9 SLC26A2 knockout cell lines; type: cell-based; details: FIGS. 7A-7C
Source text: XP003, XP023, psPAX, and pMD2.G vectors were acquired from the Broad Genetic Perturbation Platform (GPP). Oligos for sgRNAs designs were generated using Broad GPP sgRNA guide generator resource (on the World Wide Web at (www)broad institute.org/gpp/db/analvsis-tools/sgrna-design) and the respective oligos were synthesized by Integrated DNA Technologies. In order to clone the sgRNAs into either the XPR003 guide only or XPRO23 all-in-one crispr lentiviral expression systems the protocol available on the Broad GPP website (www.broadinstitute.org/gpp/db/resources/protocols) was followed.
In order to generate viral vectors, HEK293T cells were seeded in 6 well plates at a density of 1.5E6 cells per well. Cells were then transfected with a mixture of TranslT@-LT1 Transfection Reagent (MirusBio #M1R2304), psPAX2, pMD2.G, lentiviral plasmid diluted in Opti-MEM™ (Thermo #31985062). The following day media was changed DMEM (Thermo #10566016) with 30% FBS (Sigma 18A079). 72 hrs after transfection, virus containing media was collected and run through a 0.2 uM filter to remove cellular debris. Virus was aliquoted and stored short term at −20 C until infection day. […]
Cell viability was assayed using a modified manufacturer's protocol for CellTiter-Glo® (Promega #G7573). […] Luminescence was measured with an integration time of 0.1 s using Envision Microplates Reader (PERKIN ELMER #2105-0010). […]

[2] = diabetic rats; cited from earlier work
[3] = target: T1, protein tyrosine phosphatase-1B (PTP-1B) (Homo sapiens, UniProt P18031); details: cited from earlier work
T1 sequence (P18031 1-435): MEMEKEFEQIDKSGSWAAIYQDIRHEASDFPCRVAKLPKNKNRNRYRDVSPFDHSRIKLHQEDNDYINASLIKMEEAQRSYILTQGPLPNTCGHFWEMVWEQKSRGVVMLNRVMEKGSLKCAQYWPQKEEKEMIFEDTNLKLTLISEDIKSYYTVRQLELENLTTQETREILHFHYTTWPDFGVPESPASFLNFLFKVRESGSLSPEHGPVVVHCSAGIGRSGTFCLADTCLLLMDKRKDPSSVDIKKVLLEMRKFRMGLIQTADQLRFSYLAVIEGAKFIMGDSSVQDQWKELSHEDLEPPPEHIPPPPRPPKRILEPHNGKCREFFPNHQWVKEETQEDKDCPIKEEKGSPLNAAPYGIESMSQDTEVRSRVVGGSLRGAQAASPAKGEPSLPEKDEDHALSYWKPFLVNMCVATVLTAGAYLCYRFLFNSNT

Row | Structure (SMILES) | prediction of cell line sensitivity by SLC26A2 expression (578 cancer cell lines) | selective killing of cancer cell lines (578 cancer cell lines; SLC26A2-high versus lower SLC26A2 expression cell lines) | effect of SLC26A2 knockout on BMOV sensitivity (percent viability curves) [1] | glycaemia and insulin levels [2] | phosphatase inhibition [3]
1 | CCc1occc(=O)c1[O][V](=[O])[O]c1c(CC)occc1=O [BEOV, bis(ethylmaltolato)oxovanadium(IV)] | high SLC26A2 transcriptional target gene expression predicted cell line sensitivity | – | – | – | –
2 | CC(C)c1occc(=O)c1[O][V](=[O])[O]c1c(C(C)C)occc1=O [BIOV, bis(isopropylmaltolato)oxovanadium(IV)] | high SLC26A2 transcriptional target gene expression predicted cell line sensitivity | – | – | – | –
3 | Cc1occc(=O)c1[O][V](=[O])[O]c1c(C)occc1=O [BMOV, bis(maltolato)oxovanadium(IV)] | high SLC26A2 transcriptional target gene expression predicted cell line sensitivity | selective killing of SLC26A2-high cancer cell lines; also recorded: selectively kills ovarian cancer cells, bone cancer cells, and melanoma cells | SLC26A2 knockouts rescue BMOV sensitivity | restore normoglycaemia without rising insulin levels | potent phosphatase inhibitor
4 | CCCCc1occc(=O)c1[O][V](=[O])[O]c1c(CCCC)occc1=O [BnBOV, bis(n-butylmaltolato)oxovanadium(IV)] | high SLC26A2 transcriptional target gene expression predicted cell line sensitivity | – | – | – | –
